Laboratory results: US12065434B2, “Metabolites of GLP1R agonists” (Pfizer Inc., priority 2020, dated 2024)

Key:
monkey hepatocytes = test: In vitro metabolism of Compound 2 in monkey cryopreserved hepatocytes; assay type: in vitro ADME, cynomolgus monkey; parameters: key to Relative abundance of metabolite of Compound 2, Monkey: ND Not detected.; trace: Trace: observed by HPLC/MS measurements only.; + Minor as assessed by HPLC/UV measurements; ++ moderate as assessed by HPLC/UV measurements; +++ major as assessed by HPLC/UV measurements.; * m/z 593 and m/z 505 co-eluted in rabbit hepatocytes.; ** m/z 591 c and m/z 593 were merged in human hepatocytes and Hepatopack.; *** m/z 607 and m/z 751 b were merged in rabbit hepatocytes; conditions: for metabolite of Compound 2 observed in monkey hepatocyte incubations: 10 μM Compound 2, 7.5×10^5 cells/mL, 1 and 4 hrs composite
Protocol: (§1) Male CD-1 mouse hepatocytes (lot YHL), male Wistar-Han rat hepatocytes (Celsius; product number: M000065; lot: SLA), female New Zealand rabbit hepatocytes (lot 1510147), male cryopreserved cynomolgus monkey hepatocytes (Celsius; product number: M00305; lot: DNB) and mixed-gender cryopreserved human hepatocytes (Bioreclamation; product number: S01988; lot: DCM) were obtained for the hepatocyte in-vitro assessments.
(§2) At time 0 hrs 550 μL aliquots were removed from incubations and quenched with 5 volumes of ACN containing 0.1% formic acid. At 1 and 4 hrs, 275 μL aliquots were removed and quenched as above; these were combined in the same tube to prepare a composite sample. For all hepatocyte experiments, samples were processed by centrifugation at 1900×g for 5 minutes, and then the supernatant was transferred to clean glass tubes and evaporated to dryness under a stream of N2 using a Turbovap at 37° C. Sample residues were reconstituted in mobile phase prior to analysis by HPLC/UV/MS^n.
(§3) Samples were analyzed by HPLC/UV/MS^n using a Thermo Orbitrap Elite mass spectrometer in conjunction with a Thermo Open Accela UHPLC system. A 3.0×150 mm, 2.5 μm Acquity CSH C18 HPLC column (Waters) was heated to 45° C. for separation of analytes. The mobile phase was a gradient of A): water containing 0.1% formic acid, and B): acetonitrile. The flow rate was 450 μL/min, and the following gradient program was utilized: […]
(§4) UV absorbance was monitored with a photo-diode array detector from 220-450 nm. The mass spectrometer was operated in positive-ion mode with a HESI ion source at a potential of 3.0 kV, and capillary and source heater temperatures of 380 and 300° C., respectively. Sheath, auxiliary, and sweep gas flows were set to 45, 10, and 2 units, respectively. Full scan mass spectra were acquired over the range 120-1200 m/z at a resolving power of 30,000 (specified at m/z 400). Data-dependent MS^n spectra were acquired in an automated fashion at 15,000 resolving power using CID and HCD fragmentation with normalized collision energy settings of 28 and 65 V, respectively.
(§5) Metabolites were characterized by comparisons of mass spectral fragmentation patterns with that of a Compound 2 standard. All HPLC/UV/MS^n data were processed using Xcalibur v. 2.2, and integrated UV peak areas were subjected to weighted UV binning procedures utilizing an Excel template.

human hepatocytes = test: In vitro metabolism of Compound 2 in human cryopreserved hepatocytes; assay type: in vitro ADME; parameters: key to Relative abundance of metabolite of Compound 2, Human: ND Not detected.; trace: Trace: observed by HPLC/MS measurements only.; + Minor as assessed by HPLC/UV measurements; ++ moderate as assessed by HPLC/UV measurements; +++ major as assessed by HPLC/UV measurements.; * m/z 593 and m/z 505 co-eluted in rabbit hepatocytes.; ** m/z 591 c and m/z 593 were merged in human hepatocytes and Hepatopack.; *** m/z 607 and m/z 751 b were merged in rabbit hepatocytes; conditions: for metabolite of Compound 2 observed in human hepatocyte incubations: 10 μM Compound 2, 7.5×10^5 cells/mL, 1 and 4 hrs composite
Protocol: as §1, §2, §3, §4, §5

[1] = test system: human co-cultured hepatocytes (Hepatopack); test: In vitro metabolism of Compound 2 in human micropatterned co-cultured hepatocytes (Hepatopack); assay type: in vitro ADME; parameters: key to Relative abundance of metabolite of Compound 2, Hepatopack: ND Not detected.; trace: Trace: observed by HPLC/MS measurements only.; + Minor as assessed by HPLC/UV measurements; ++ moderate as assessed by HPLC/UV measurements; +++ major as assessed by HPLC/UV measurements.; * m/z 593 and m/z 505 co-eluted in rabbit hepatocytes.; ** m/z 591 c and m/z 593 were merged in human hepatocytes and Hepatopack.; *** m/z 607 and m/z 751 b were merged in rabbit hepatocytes
Source text: Micro-patterned co-cultured (MPCC) hepatocyte 24-well plates containing human donors (16 wells each) were provided by Ascendance Biotechnology (formerly Hepregen Corp. (Medford, MA). [see Wang W W W, Khetani S R, Krzyzewski S, et al. Assessment of a Micropatterned Hepatocyte Coculture System to Generate Major Human Excretory and Circulating Drug Metabolites. Drug Metab Dispos 2010; 38(10):1900-5.] The MPCCs were created at Ascendance Biotechnology and maintained in serum containing medium for 5-6 days to allow for stabilization of the co-cultures prior to shipment. A mixed-gender cryopreserved pool of 10 human donors (X008001-P; lot YFA) was used to seed the plates and was purchased from BioreclamationIVT (Westbury, NY). MPCC hepatocytes are plated with fibroblasts in a 1:3 ratio with ˜25,000 hepatocytes/well in a 24-well plate. 24-Well MPCC plates were shipped to Pfizer, fresh medium (400 μL/well) was applied and cultures were kept at 37° C. with […] and 95% relative humidity for two days. Micropatterned co-cultures containing pooled hepatocytes were allowed 7 days to fully stabilize with respect to liver-specific functions. […] At respective time points (0, 2, and 7 days), the culture medium was removed and mixed with 4 volumes of ACN, then stored frozen at −40° C. until samples could be analyzed. Samples were subsequently processed by the addition of 2.5 mL of 1:1 ACN:MeOH containing 0.1% formic acid. After vortexing, the samples were centrifuged at 1900×g for 5 min, then the supernatant was transferred to 15 mL conical tubes and evaporated under N2 using a Turbovap set at 37° C. The residues were reconstituted in mobile phase (5:95 v:v ACN:0.1% aqueous formic acid) prior to analysis by HPLC/UV/MS^n.
as §3
UV absorbance was monitored with a photo-diode array detector from 220-450 nm. The mass spectrometer was operated in positive-ion mode with a HESI ion source at a potential of 3.0 kV, and capillary and source heater temperatures of 380 and 300° C., respectively. Sheath, auxiliary, and sweep gas flows were set to 45, 10, and 2 units, respectively. Full scan mass spectra were acquired over the range 120-1200 m/z at a resolving power of 30,000 (specified at m/z 400). […]

[2] = Circulating metabolites of Compound 2 in rat plasma following a 1.0 mg/kg IV bolus dose; assay type: in vivo; conditions: 1.0 mg/kg IV bolus dose of Compound 2, pooled 0.033-24 hrs
Protocol: Plasma and bile samples were obtained from a bile duct cannulated rat experiment (Study PK-0111) in which a 1.0 mg/kg IV bolus dose was administered to fed male rats (N=3). No control plasma was available from this experiment.
Clin Pharmacol Ther 1981; 29(3):408-13]. The entire volume of each replicate Hamilton pool was combined to create a single pooled sample (576 μL) for analysis.
Pooled plasma and bile samples were extracted with ACN containing 0.1% formic acid, and after centrifugation at 1900×g, the supernatant was transferred to clean tubes and evaporated under N2 in a Turbovap set at 37° C. Residues were reconstituted in mobile phase (5:95 v:v ACN:0.1% aqueous formic acid) prior to analysis by HPLC/UV/MS^n.
as §3, §4, §5

| SMILES | metabolite of Compound 2 observed in monkey hepatocyte incubations (monkey hepatocytes) | Relative abundance of metabolite of Compound 2, Monkey (monkey hepatocytes; monkey cryopreserved hepatocytes, HPLC/UV/MS) | metabolite of Compound 2 observed in human hepatocyte incubations (human hepatocytes) | Relative abundance of metabolite of Compound 2, Human (human hepatocytes; human cryopreserved hepatocytes, HPLC/UV/MS) | Relative abundance of metabolite of Compound 2, Hepatopack ([1]; human co-cultured hepatocytes (Hepatopack), HPLC/UV/MS) | detected in rat plasma [2] | detected in rat plasma ([2]; listed as m/z 331) | metabolite of Compound 2 observed in human hepatocyte incubations (human hepatocytes; listed as m/z 751b) | abundance of metabolite of Compound 2 in human Hepatopack system ([1]; Compound 2 tris salt 20 μM, up to 7 days) | detected in rat plasma ([2]; listed as m/z 751b) |
| --- | --- | --- | --- | --- | --- | --- | --- | --- | --- | --- |
| C[C@]1(c2ccc(Cl)cn2)Oc2cccc(C3CCNCC3)c2O1 [Metabolite 331] | observed in all hepatocyte incubations | + | observed in all hepatocyte incubations | + | trace | observed | detected |  |  |  |
| C[C@]1(c2ccc(Cl)cn2)Oc2cccc(C3CCN(Cc4nc5ccc(C(=O)O[C@@H]6O[C@H](C(=O)O)[C@@H](O)[C@H](O)[C@H]6O)cc5n4C[C@@H]4CCO4)CC3)c2O1 [Metabolite 751b] | observed in all hepatocyte incubations |  | observed in all hepatocyte incubations |  |  | observed |  | most abundant metabolites | most abundant metabolites | detected |
